Here are results for 34 compounds from patent US8084466B2, “Bicyclic heteroaryl-substituted imidazoles as modulators of the histamine H4 receptor” (Janssen Pharmaceutica NV, priority 2007, dated 2011).

The Ki is the equilibrium dissociation constant of an inhibitor or competing ligand from its target.

Each structure is given as a SMILES string.

For the test, the target named is T1, human histamine H4 receptor (Homo sapiens, UniProt Q9H3N8).
T1 construct: expressed in transfected cells; host or cells: SK-N-MC cells or COS7 cells, transient transfection with pH4R; cell membranes
T1 sequence (Q9H3N8 whole entry): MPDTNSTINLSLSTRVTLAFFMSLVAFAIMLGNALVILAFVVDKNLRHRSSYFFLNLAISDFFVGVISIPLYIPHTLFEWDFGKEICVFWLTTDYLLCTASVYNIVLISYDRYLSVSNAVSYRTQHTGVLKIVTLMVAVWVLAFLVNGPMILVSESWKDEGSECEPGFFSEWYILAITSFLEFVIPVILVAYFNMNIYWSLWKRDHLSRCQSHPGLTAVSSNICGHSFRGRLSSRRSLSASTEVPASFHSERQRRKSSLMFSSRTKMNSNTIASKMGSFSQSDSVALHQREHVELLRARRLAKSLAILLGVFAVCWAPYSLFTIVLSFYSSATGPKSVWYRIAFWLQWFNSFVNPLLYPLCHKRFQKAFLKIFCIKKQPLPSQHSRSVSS
The experiment in a line: Binding Assay on Recombinant Human Histamine H4 Receptor. Particulars: competition binding with 3H-histamine (5 nM; KD 5 nM), membranes of SK-N-MC or COS7 cells expressing human H4 receptor; average of results; > = highest value tested. The method, then: Biological Methods: Binding Assay on Recombinant Human Histamine H4 Receptor
SK-N-MC cells or COS7 cells were transiently transfected with pH4R and grown in 150 cm^2 tissue culture dishes. Cells were washed with saline solution, scraped with a cell scraper and collected by centrifugation (1000 rpm, 5 min). Cell membranes were prepared by homogenization of the cell pellet in 20 mM Tris-HCl with a polytron tissue homogenizer for 10 sec at high speed. Homogenate was centrifuged at 1000 rpm for 5 min at 4° C. The supernatant was then collected and centrifuged at 20,000×g for 25 min at 4° C. The final pellet was resuspended in 50 mM Tris-HCl. Cell membranes were incubated with ^3H-histamine (5-70 nM) in the presence or absence of excess histamine (10,000 nM). Incubation occurred at room temperature for […]. Membranes were harvested by rapid filtration over Whatman GF/C filters and washed 4 times with ice-cold 50 mM Tris HCl. Filters were then dried, mixed with scintillant and counted for radioactivity. SK-N-MC or COS7 cells expressing human histamine H4 receptor were used to measure the affinity of binding of other compounds and their ability to displace ^3H-ligand binding by incubating the above-described reaction in the presence of various concentrations of inhibitor or compound to be tested. For competition binding studies using ^3H-histamine, Ki values were calculated, based on an experimentally determined KD value of 5 nM and a ligand concentration of 5 nM, according to Y.-C.
For the compound `Cc1c(F)ccc2[nH]c(-c3ccc4ncn(CCCC5CCN(C)CC5)c4c3)nc12` [Example 41, 5-Fluoro-4-methyl-3′-[3-(1-methyl-piperidin-4-yl)-propyl]-1H,3′H-[2,5′]bibenzoimidazolyl], the Ki came to 397 nM. The same measure for `CN1CCC(CCCN2CCc3cc(-c4nc5cc(Cl)ccc5[nH]4)ccc32)CC1` [Example 97, 5-Chloro-2-{1-[3-(1-methyl-piperidin-4-yl)-propyl]-2,3-dihydro-1H-indol-5-yl}-1H-benzoimidazole]: 43 nM; for `Cc1c(F)ccc2[nH]c(-c3cccc4c3c(Cl)cn4CCCCC3CCNCC3)nc12` [Example 133, 2-[3-Chloro-1-(4-piperidin-4-yl-butyl)-1H-indol-4-yl]-5-fluoro-4-methyl-1H-benzoimidazole]: greater than 10000 nM; for `Cc1cccc2[nH]c(-c3ccc4c(ncn4CCCC4CCN(C)CC4)c3C)nc12` [Example 53, 4,4′-Dimethyl-1′-[3-(1-methyl-piperidin-4-yl)-propyl]-1H,1′H-[2,5′]bibenzoimidazolyl]: 15 nM. As to `Cc1c(F)ccc2[nH]c(-c3ccc4c(ccn4CCCN4CCNCC4)c3)nc12` [Example 33, 5-Fluoro-4-methyl-2-[1-(3-piperazin-1-yl-propyl)-1H-indol-5-yl]-1H-benzoimidazole], the Ki was determined as 1290 nM. With `Cc1c(-c2nc(C(F)(F)F)c(-c3ccccc3)[nH]2)ccc2c1ncn2CCCC1CCN(C)CC1` [Example 84, 4-Methyl-1-[3-(1-methyl-piperidin-4-yl)-propyl]-5-(5-phenyl-4-trifluoromethyl-1H-imidazol-2-yl)-1H-benzoimidazole], the inhibition constant (Ki) amounted to 8 nM.

With `Fc1cc(F)c2nc(-c3cc4ccn(CCCC5CCNCC5)c4cc3Cl)[nH]c2c1` [Example 99, 2-[6-Chloro-1-(3-piperidin-4-yl-propyl)-1H-indol-5-yl]-4,6-difluoro-1H-benzoimidazole], the Ki came to 2670 nM. As for `O=C(c1ccccc1)c1ccc2[nH]c(-c3cccc4c3c(Cl)cn4CCCCC3CCNCC3)nc2c1` [Example 129, {2-[3-Chloro-1-(4-piperidin-4-yl-butyl)-1H-indol-4-yl]-1H-benzoimidazol-5-yl}-phenyl-methanone], the inhibition constant Ki was 2000 nM. The same measure for `Cc1cccc2[nH]c(-c3ccc4c(c3)ncn4CCCCC3CCN(C)CC3)nc12` [Example 42, 4-Methyl-1′-[4-(1-methyl-piperidin-4-yl)-butyl]-1H,1′H-[2.5′]bibenzoimidazolyl]: 2000 nM. For `CN1CCC(CCCCn2ccc3c(-c4nc5cc6ccccc6cc5[nH]4)cccc32)CC1` [Example 21, 2-{1-[4-(1-Methyl-piperidin-4-yl)-butyl]-1H-indol-4-yl}-1H-naphtho[2,3-d]imidazole], the Ki worked out at 187 nM. The figure for `Cc1cccc2[nH]c(-c3ccc4ncn(CCCCC5CCN(C)CC5)c4c3)nc12` [Example 43, 4-Methyl-3′-[4-(1-methyl-piperidin-4-yl)-butyl]-1H,3′H-[2,5′]bibenzoimidazolyl] is 1670 nM; for `Cc1[nH]c(-c2ccc3c(ccn3CCCN3CCN(C)CC3)c2)nc1-c1ccc(Cl)cc1` [Example 80, 5-[4-(4-Chloro-phenyl)-5-methyl-1H-imidazol-2-yl]-1-[3-(4-methyl-piperazin-1-yl)-propyl]-1H-indole] it is 1980 nM; for `Cc1c(-c2nc3c(C)c(F)ccc3[nH]2)ccc2c1ccn2CCCC1CCN(C)CC1` [Example 7, 5-Fluoro-4-methyl-2-{4-methyl-1-[3-(1-methyl-piperidin-4-yl)-propyl]-1H-indol-5-yl}-1H-benzoimidazole] it is 29 nM. For the compound `Cc1ccc2[nH]c(-c3ccc4ncn(CCCCC5CCN(C)CC5)c4c3)nc2c1C` [Example 125, 4,5-Dimethyl-3′-[4-(1-methyl-piperidin-4-yl)-butyl]-1H,3′H-[2,5′]bibenzoimidazolyl], the Ki amounted to 2670 nM. The figure for `CN1CCC(CCCn2ccc3cc(-c4nc5cc(C(C)(C)C)ccc5[nH]4)cnc32)CC1` [Example 92] is 353 nM; for `CN1CCC(CCCCn2cc(Cl)c3c(-c4nc5cc(F)c(F)cc5[nH]4)cccc32)CC1` [Example 32, 2-{3-Chloro-1-[4-(1-methyl-piperidin-4-yl)-butyl]-1H-indol-4-yl}-5,6-difluoro-1H-benzoimidazole] it is 599 nM. Regarding `Cc1c(Cl)ccc2[nH]c(-c3ccc4c(ncn4CCCC4CCNCC4)c3C)nc12` [Example 113, 5-Chloro-4,4′-dimethyl-1′-(3-piperidin-4-yl-propyl)-1H,1′H-[2,5′]bibenzoimidazolyl], the Ki was determined as 165 nM. In the case of `Fc1ccc2[nH]c(-c3ccc4ncn(CCCCC5CCNCC5)c4c3)nc2c1` [Example 124, 5-Fluoro-3′-(4-piperidin-4-yl-butyl)-1H,3′H-[2,5′]bibenzoimidazolyl], the Ki was greater than 10000 nM. In the case of `CN1CCC(CCCn2ccc3cc(-c4nc5c(F)cc(F)cc5[nH]4)c(Cl)cc32)CC1` [Example 48, 2-{6-Chloro-1-[3-(1-methyl-piperidin-4-yl)-propyl]-1H-indol-5-yl}-4,6-difluoro-1H-benzoimidazole], the Ki stood at 1030 nM. The figure for `CN1CCC(CCCCn2ccc3c(-c4nc5cc(F)ccc5[nH]4)cccc32)CC1` [Example 69, 5-Fluoro-2-{1-[4-(1-methyl-piperidin-4-yl)-butyl]-1H-indol-4-yl}-1H-benzoimidazole] is 325 nM; for `Clc1ccc2[nH]c(-c3ccc4c(ccn4CCCN4CCNCC4)c3)nc2c1` [Example 64, 5-Chloro-2-[1-(3-piperazin-1-yl-propyl)-1H-indol-5-yl]-1H-benzoimidazole] it is 1520 nM. The figure for `Cc1cc(C)c2nc(-c3ccc4c(ccn4CCCC4CCN(C)CC4)c3)[nH]c2c1` [Example 61] is 135 nM; for `Cc1ccc2[nH]c(-c3cccc4c3ccn4CCCCC3CCNCC3)nc2c1C` [Example 106, 6,7-Dimethyl-2-[1-(4-piperidin-4-yl-butyl)-1H-indol-4-yl]-1H-benzoimidazole] it is 2640 nM; for `Cc1nc(-c2ccc3c(ncn3CCCC3CCN(C)CC3)c2C)[nH]c1-c1cc(Cl)cc(Cl)c1` [Example 83, 5-[5-(3,5-Dichloro-phenyl)-4-methyl-1H-imidazol-2-yl]-4-methyl-1-[3-(1-methyl-piperidin-4-yl)-propyl]-1H-benzoimidazole] it is 0.3 nM.

Take `CC(C)(C)c1ccc2[nH]c(-c3ccc4c(c3)c(Cl)cn4CCCC3CCNCC3)nc2c1` [Example 34, 5-tert-Butyl-2-[3-chloro-1-(3-piperidin-4-yl-propyl)-1H-indol-5-yl]-1H-benzoimidazole]: the Ki came to 2000 nM.

As for `Fc1cc2nc(-c3cccc4c3c(Cl)cn4CCCCC3CCNCC3)[nH]c2cc1F` [Example 131, 2-[3-Chloro-1-(4-piperidin-4-yl-butyl)-1H-indol-4-yl]-5,6-difluoro-1H-benzoimidazole], the Ki was determined as 3330 nM. The same measure for `Cc1c(F)ccc2[nH]c(-c3ccc4ccn(CCCCC5CCNCC5)c4c3)nc12` [Example 38, 5-Fluoro4-methyl-2-[1-(4-piperidin-4-yl-butyl)-1H-indol-6-yl]-1H-benzoimidazole]: 1140 nM; for `Cc1c(F)ccc2[nH]c(-c3ccc4c(c3)ncn4CCCC3CCN(C)CC3)nc12` [Example 40, 5-Fluoro-4-methyl-1′-[3-(1-methyl-piperidin-4-yl)-propyl]-1H,1′H-[2,5′]bibenzoimidazolyl]: 65 nM. Turning to `Cc1cccc2[nH]c(-c3ccc4ncn(CCCCC5CCNCC5)c4c3)nc12` [Example 122, 4-Methyl-3′-(4-piperidin-4-yl-butyl)-1H,3′H-[2,5′]bibenzoimidazolyl], the Ki came out at 1670 nM. The same measure for `Cc1nc2ccc3nc(-c4cccc5c4c(Cl)cn5CCCCC4CCN(C)CC4)[nH]c3c2s1` [Example 136, 7-{3-Chloro-1-[4-(1-methyl-piperidin-4-yl)-butyl]-1H-indol-4-yl}-2-methyl-8H-imidazo[4′,5′:3,4]benzo[1,2-d]thiazole]: 941 nM. For the compound `CN(C)Cc1cn(CCCCC2CCNCC2)c2ccc(-c3nc4cc(C(C)(C)C)ccc4[nH]3)cc12` [Example 39, [5-(5-tert-Butyl-1H-benzoimidazol-2-yl)-1-(4-piperidin-4-yl-butyl)-1H-indol-3-ylmethyl]-dimethyl-amine], the Ki turned out to be 2920 nM. Regarding `COC(=O)c1ccc2nc(-c3cccc4c3c(Cl)cn4CCCCC3CCNCC3)[nH]c2c1` [Example 135, 2-[3-Chloro-1-(4-piperidin-4-yl-butyl)-1H-indol-4-yl]-3H-benzoimidazole-5-carboxylic acid methyl ester], the Ki is greater than 10000 nM. The figure for `Cc1ccc2[nH]c(-c3cccc4c3c(Cl)cn4CCCCC3CCN(C)CC3)nc2c1C` [Example 74, 2-{3-Chloro-1-[4-(1-methyl-piperidin-4-yl)-butyl]-1H-indol-4-yl}-4,5-dimethyl-1H-benzoimidazole] is 1670 nM; for `CN1CCC(CCCCn2cc(Cl)c3c(-c4nc5cccc(C(=O)c6ccccc6)c5[nH]4)cccc32)CC1` [Example 72, (2-{3-Chloro-1-[4-(1-methyl-piperidin-4-yl)-butyl]-1H-indol-4-yl}-3H-benzoimidazol-4-yl)-phenyl-methanone] it is 545 nM.
